Read-outs that look alike come from different tables or passages of the source.
Assays:
[1] = system: CYP450 enzymes; assay: Time- and metabolism-dependent CYP450 inhibition in human liver microsomes; format: in vitro ADME; details: compared to direct inhibition
[2] = system: CYP1A2 mRNA; assay: CYP450 induction in cultured human hepatocytes, mRNA by qRT-PCR; format: cell-based; details: for Fold‐change method: Fold change: highest dose tested (40 µM fenfluramine, 50 µM norfenfluramine); for Fold‐change method: % of control: percent of positive control induction of mRNA
Experimental: Each PCR was performed in triplicate.

[3] = system: CYP3A4 mRNA; assay: in vitro; details: for EC50 / Basic kinetic model: Emax (fold): ± standard error; for Fold‐change method: Fold change: highest dose tested (40 µM fenfluramine, 50 µM norfenfluramine); for Fold‐change method: % of control: percent of positive control induction of mRNA; for Basic kinetic model: Emax (fold): fit of fold‐change −1 values
Experimental: Cells were then harvested to isolate RNA, which was analyzed by quantitative reverse transcription‐polymerase chain reaction (qRT‐PCR) for induction of CYP1A2, CYP2B6, and CYP3A4 mRNA levels. Total RNA was phase extracted with TRIzol followed by purification with an RNeasy Mini Kit (Qiagen Inc., Germantown, MD). Quantitative PCR was performed in triplicate with a 7900HT Fast Real Time PCR System, an Applied Biosystems Universal Master Mix, and TaqMan® Gene Expression Assays. The quantity of target cDNA relative to control cDNA (GAPDH) was determined by the ΔΔCT method (Applied Biosystems User Bulletin #2). Relative quantitation measures the change in mRNA expression in a test sample relative to that in the control sample (i.e., DMSO). This method assumes that the efficiency of target amplification and the efficiency of endogenous control amplification are approximately equal.
mRNA assessment was conducted using a quantitative reverse transcription-polymerase chain reaction (qRT-PCR) according to the Applied Biosystems protocol. Each PCR was performed in triplicate. A Primer Mix was prepared for each Gene Expression assay. A typical Primer Mix contained TaqMan Fast Advanced Master Mix (1X), Gene Expression Assay (1X, 900 nM forward and reverse primers) and ribonuclease (RNase)-free water. The Reaction Mix was prepared by adding the Primer Mix to cDNA. A percentage of samples (no less than 10%) included NACs. […] The relative quantity of the target cDNA compared with that of the control cDNA (GAPDH) was determined by the ΔΔCt method (Applied Biosystems User Bulletin #2). Relative quantitation measures the change in mRNA expression in a test sample relative to that in a control sample (eg, dimethyl sulfoxide [DMSO]). This method assumes that the efficiency of the target amplification and the efficiency of the endogenous control amplification are approximately equal.
This software analyzes relative gene expression using the comparative Ct method (ΔΔCt), which relates the PCR signal of the target transcript to the PCR signal of the target in an untreated control. Both the treated sample and the untreated control signals are normalized to the endogenous control (GAPDH), for which expression is not affected by treatment and expression is constant throughout the tissue being tested.
The level of mRNA expression relative to the positive control was calculated as follows: […]

[4] = target: T1, OAT3 (Homo sapiens, UniProt Q8TCC7); assay: Transporter inhibition, uptake of [3H]-estrone-3-sulfate in HEK293 cells; format: in vitro ADME
T1 construct: host or cells: HEK293
T1 sequence (Q8TCC7 1-542): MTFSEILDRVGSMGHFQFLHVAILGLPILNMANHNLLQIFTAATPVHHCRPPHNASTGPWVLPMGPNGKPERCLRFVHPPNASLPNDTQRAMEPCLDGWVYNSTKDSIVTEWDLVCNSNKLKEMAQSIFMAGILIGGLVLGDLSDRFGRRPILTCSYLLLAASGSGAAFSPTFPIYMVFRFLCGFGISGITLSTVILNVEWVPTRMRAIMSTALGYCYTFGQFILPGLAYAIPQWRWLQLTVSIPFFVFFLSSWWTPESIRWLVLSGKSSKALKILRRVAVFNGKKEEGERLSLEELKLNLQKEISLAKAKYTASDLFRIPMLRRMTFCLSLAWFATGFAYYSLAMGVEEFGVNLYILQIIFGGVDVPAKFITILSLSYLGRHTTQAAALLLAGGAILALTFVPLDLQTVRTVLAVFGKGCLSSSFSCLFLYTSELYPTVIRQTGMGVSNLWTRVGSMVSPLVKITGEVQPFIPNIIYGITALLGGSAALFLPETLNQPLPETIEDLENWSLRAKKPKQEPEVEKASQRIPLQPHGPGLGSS
Experimental: The test compound (FFA or nFFA) or the positive control substrate ([…], respectively) was added to the donor chamber. […] Cells were then washed, lysed with scintillation cocktail, and analyzed for the probe substrate with a MicroBeta scintillation counter (PerkinElmer, Hopkinton, MA). Transcellular transporter assay conditions are described in Supplemental Table 1. Calculation of IC50 values was based on bidirectional permeability of probe substrate with and without the inhibitor in MDCKII cells expressing BCRP and in Caco‐2 cells expressing P‐gp, and transporter‐dependent uptake of probe substrate in HEK293 cells expressing all other transporters (Supplemental Table 1).
The transporter-specific uptake of the probe substrate in cells was determined by subtracting the accumulation in the control cells from the accumulation in the transporter-expressing cells.

[5] = target: T2, CYP1A2 (Homo sapiens, UniProt P05177); assay: Direct CYP450 inhibition in human liver microsomes (phenacetin O-dealkylation)
T2 sequence (P05177 1-516): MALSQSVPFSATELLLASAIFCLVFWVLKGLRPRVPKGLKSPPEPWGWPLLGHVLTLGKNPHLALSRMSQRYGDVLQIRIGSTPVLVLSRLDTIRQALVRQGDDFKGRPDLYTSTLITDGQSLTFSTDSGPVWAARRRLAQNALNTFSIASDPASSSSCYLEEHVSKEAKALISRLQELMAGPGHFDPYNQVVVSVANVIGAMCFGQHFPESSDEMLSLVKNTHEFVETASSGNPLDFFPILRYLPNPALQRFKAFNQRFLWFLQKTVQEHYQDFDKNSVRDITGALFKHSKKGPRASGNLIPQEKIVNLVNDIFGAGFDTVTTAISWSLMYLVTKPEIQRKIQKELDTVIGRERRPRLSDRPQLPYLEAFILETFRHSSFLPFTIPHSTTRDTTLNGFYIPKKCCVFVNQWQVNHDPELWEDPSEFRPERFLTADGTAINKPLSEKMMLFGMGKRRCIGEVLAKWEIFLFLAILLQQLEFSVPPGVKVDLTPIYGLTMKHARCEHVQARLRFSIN
From the text: (§1) A mixed‐gender pool of 200 individual human liver microsomal samples was used.
(§2) This LIMS utilizes the Levenberg-Marquardt algorithm to perform nonlinear regression fitting of the data to the following 4-parameter sigmoidal-logistic IC50 equation:
(§3) As percent of control values are utilized, the Min is set to 0 and the Max is set to 100 (or other values, as appropriate). […] Therefore, when an IC50 value falls outside the concentration range studied, the IC50 values are reported to be greater than the highest concentrations of test article evaluated.

[6] = target: CYP2C9 (Homo sapiens, UniProt P11712); assay: Direct CYP450 inhibition in human liver microsomes (diclofenac 4'-hydroxylation)
From the text: as §1, §2, §3

[7] = all three hepatocyte cultures, FFA up to 40 μM, nFFA 50 μM

CYP2C9, sequence (P11712 whole entry): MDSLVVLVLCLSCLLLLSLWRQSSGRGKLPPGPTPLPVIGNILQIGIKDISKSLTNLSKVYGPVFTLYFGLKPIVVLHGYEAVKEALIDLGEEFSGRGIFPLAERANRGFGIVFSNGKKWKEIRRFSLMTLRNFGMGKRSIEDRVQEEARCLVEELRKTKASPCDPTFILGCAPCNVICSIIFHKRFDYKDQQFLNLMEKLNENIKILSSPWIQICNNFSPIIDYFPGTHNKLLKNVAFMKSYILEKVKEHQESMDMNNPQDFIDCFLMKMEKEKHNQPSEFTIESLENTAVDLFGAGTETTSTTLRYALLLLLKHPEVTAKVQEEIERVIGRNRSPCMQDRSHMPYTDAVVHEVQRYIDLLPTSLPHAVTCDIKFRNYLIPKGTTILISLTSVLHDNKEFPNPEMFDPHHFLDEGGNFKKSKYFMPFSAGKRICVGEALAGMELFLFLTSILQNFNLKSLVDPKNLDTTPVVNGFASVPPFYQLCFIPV

CCNC(C)Cc1cccc(C(F)(F)F)c1 (racemic) [FFA, (RS)‐ethyl(α‐methyl‐3‐trifluoromethylphenethyl)amine, reference compound]
time- or metabolism-dependent inhibition of CYP450 enzyme activity [1]: did not have any additional inhibitory effects | % as effective as the positive control, omeprazole (CYP1A2 mRNA) [2, 7]: < 20% | Static mechanistic model: Potential to induce [3]: No (key: Yes: AUCR <0.8 to denote induction; No: AUCR <0.8 to denote induction) | EC50 ([3]; human, Basic kinetic model: EC50, hepatocytes HC7‐8): 8.53 ± 4.3 µM | EC50 ([3]; human, Basic kinetic model: EC50, hepatocytes HC10‐8): 20.4 ± 1.9 µM | EC50 ([3]; human, Basic kinetic model: EC50, hepatocytes HC10‐10): 9.05 ± 3.6 µM | CYP3A4 induction (abstract) ([3]; human, hepatocytes): 1.9-3.0 fold | IC50 [4]: > 30 µM | IC50 [5]: > 60 µM | Basic model: Potential for clinical inhibition ([5]; substrate phenacetin): No (Potential to inhibit if R1 ≥ 1.02) | Static mechanistic model: Potential for clinical inhibition ([5]; substrate phenacetin): No (Potential to inhibit if AUCR ≥ 1.25) | IC50 [6]: > 60 µM | Inhibition (%) ([6]; direct inhibition, substrate diclofenac, FFA up to 60 µM, nFFA up to 100 µM): 2.4% | Basic model: Potential for clinical inhibition ([6]; substrate diclofenac): No (Potential to inhibit if R1 ≥ 1.02) | Static mechanistic model: Potential for clinical inhibition ([6]; substrate diclofenac): No (Potential to inhibit if AUCR ≥ 1.25) | Basic model: R1 ([6]; substrate diclofenac, R1 = 1 + (Imax,u/Ki,u)): 1.01

CC(N)Cc1cccc(C(F)(F)F)c1.Cl (centres unmarked) [nFFA, [1‐(3‐trifluoromethyl)phenyl]propan‐2‐amine hydrochloride]
time- or metabolism-dependent inhibition of CYP450 enzyme activity [1]: did not have any additional inhibitory effects | % as effective as the positive control, omeprazole (CYP1A2 mRNA) [2, 7]: < 20% | fold change in CYP1A2 mRNA levels [2, 7]: < 2 fold | Fold‐change method: Potential to induce ([2]; hepatocytes HC7‐8): No | Fold‐change method: Fold change ([2]; hepatocytes HC7‐8): 1.74 fold | Fold‐change method: % of control ([2]; hepatocytes HC7‐8): 2.35% | Fold‐change method: Potential to induce ([2]; hepatocytes HC10‐8): No | Fold‐change method: Fold change ([2]; hepatocytes HC10‐8): 1.92 fold | Fold‐change method: % of control ([2]; hepatocytes HC10‐8): 1.79% | Fold‐change method: Potential to induce ([2]; hepatocytes HC10‐10): No | Fold‐change method: Fold change ([2]; hepatocytes HC10‐10): 1.86 fold | Fold‐change method: % of control ([2]; hepatocytes HC10‐10): 1.96% | Basic kinetic model: Potential to induce ([3]; hepatocytes HC7‐8): Yes | Basic kinetic model: R3 ([3]; hepatocytes HC7‐8): 0.79 | Fold‐change method: Potential to induce ([3]; hepatocytes HC7‐8): Yes | Static mechanistic model: Potential to induce ([3]; hepatocytes HC7‐8): No (AUCR <0.8 to denote induction) | Fold‐change method: Fold change ([3]; hepatocytes HC7‐8): 4.91 fold | Fold‐change method: % of control ([3]; hepatocytes HC7‐8): 3.68% | Basic kinetic model: Emax (fold) ([3]; hepatocytes HC7‐8): 3.92 ± 0.048 fold | Basic kinetic model: Potential to induce ([3]; hepatocytes HC10‐8): No | Basic kinetic model: R3 ([3]; hepatocytes HC10‐8): 0.86 | Fold‐change method: Potential to induce ([3]; hepatocytes HC10‐8): Yes | Static mechanistic model: Potential to induce ([3]; hepatocytes HC10‐8): No (AUCR <0.8 to denote induction) | Fold‐change method: Fold change ([3]; hepatocytes HC10‐8): 5.75 fold | Fold‐change method: % of control ([3]; hepatocytes HC10‐8): 15.30% | Basic kinetic model: Emax (fold) ([3]; hepatocytes HC10‐8): 6.95 ± 1.0 fold | Basic kinetic model: Potential to induce ([3]; hepatocytes HC10‐10): No | Basic kinetic model: R3 ([3]; hepatocytes HC10‐10): 0.84 | Fold‐change method: Potential to induce ([3]; hepatocytes HC10‐10): Yes | Static mechanistic model: Potential to induce ([3]; hepatocytes HC10‐10): No (AUCR <0.8 to denote induction) | Fold‐change method: Fold change ([3]; hepatocytes HC10‐10): 4.57 fold | Fold‐change method: % of control ([3]; hepatocytes HC10‐10): 4.85% | Basic kinetic model: Emax (fold) ([3]; hepatocytes HC10‐10): 3.61 ± 0.40 fold | EC50 ([3]; read-out: Basic kinetic model: EC50, hepatocytes HC7‐8): 12.9 ± 0.38 µM | EC50 ([3]; read-out: Basic kinetic model: EC50, hepatocytes HC10‐8): 37.8 ± 5.6 µM | EC50 ([3]; read-out: Basic kinetic model: EC50, hepatocytes HC10‐10): 17.1 ± 3.9 µM | IC50 ([4]; HEK293, probe [3H]-estrone-3-sulfate 50 nM, read-out: IC50): > 50 µM | IC50 ([5]; direct inhibition, human liver microsomes, substrate phenacetin): > 100 µM | Basic model: Potential for clinical inhibition ([5]; substrate phenacetin): No (Potential to inhibit if R1 ≥ 1.02) | Static mechanistic model: Potential for clinical inhibition ([5]; substrate phenacetin): No (Potential to inhibit if AUCR ≥ 1.25) | IC50 ([6]; direct inhibition, human liver microsomes, substrate diclofenac): > 100 µM | Basic model: Potential for clinical inhibition ([6]; substrate diclofenac): No (Potential to inhibit if R1 ≥ 1.02) | Static mechanistic model: Potential for clinical inhibition ([6]; substrate diclofenac): No (Potential to inhibit if AUCR ≥ 1.25)

From PMC9124818 (Pharmacology Research & Perspectives, 2022)
